Laboratory results published in US20050009840A1 (SUGEN, INC., priority 2003, published 2005).

The compounds below were run against T1, HGFR (Homo sapiens, UniProt P08581) (assay: HGFR continuous-coupled spectrophotometric assay). Conditions: Table 3, column 'Ki (μM) or I (%)': cells without % sign; read-out: Ki.
T1 construct: purchased Upstate 14-526
T1 sequence (P08581 974-1390 limits assumed): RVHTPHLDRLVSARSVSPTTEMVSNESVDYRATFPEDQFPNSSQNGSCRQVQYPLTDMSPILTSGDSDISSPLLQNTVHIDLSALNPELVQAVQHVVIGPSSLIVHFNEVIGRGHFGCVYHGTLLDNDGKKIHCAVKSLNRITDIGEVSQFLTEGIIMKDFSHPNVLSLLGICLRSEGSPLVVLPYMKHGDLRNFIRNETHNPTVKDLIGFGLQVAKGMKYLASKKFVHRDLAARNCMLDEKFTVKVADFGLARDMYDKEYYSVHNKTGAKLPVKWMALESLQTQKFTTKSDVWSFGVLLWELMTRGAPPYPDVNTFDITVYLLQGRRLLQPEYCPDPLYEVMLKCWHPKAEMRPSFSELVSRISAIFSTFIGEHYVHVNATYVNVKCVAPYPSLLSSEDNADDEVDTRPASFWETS
Assay type: biochemical
A Ki of 0.091 µM was found for `CC(Oc1cc(-c2ccc(F)c(C#N)c2)cnc1N)c1c(Cl)ccc(F)c1Cl` (stereo not drawn) [Example I-544, 5-{6-Amino-5-[1-(2,6-dichloro-3-fluoro-phenyl)-ethoxy]-pyridin-3-yl}-2-fluoro-benzonitrile] in this work.
A Ki of 0.057 µM was found for `CC(Oc1cc(-c2ccc(C(=O)N3CCCCC3)cc2)cnc1N)c1c(Cl)ccc(F)c1Cl` (stereo not drawn) [Example I-546, (4-{6-Amino-5-[1-(2,6-dichloro-3-fluoro-phenyl)-ethoxy]-pyridin-3-yl}-phenyl)-pipendin-1-yl-methanone] in this work.
A Ki of 0.067 µM was found for `CC(Oc1cc(-c2ccc(C(=O)N3CCCC3)cc2)cnc1N)c1c(Cl)ccc(F)c1Cl` (stereo not drawn) [Example I-547, (4-{6-Amino-5-[1-(2,6-dichloro-3-fluoro-phenyl)-ethoxy]-pyridin-3-yl}-phenyl)-pyrrolidin-1-yl-methanone] in this work.
A Ki of 0.095 µM was found for `CC(Oc1cc(-c2ccc(CN3C[C@@H](C)N[C@@H](C)C3)cc2)cnc1N)c1c(Cl)ccc(F)c1Cl` (stereo partly drawn) [Example I-549, 3-[1-(2,6-Dichloro-3-fluoro-phenyl)-ethoxy]-5-[4-(dimethyl-piperazin-1-ylmethyl)-phenyl]-pyridin-2-ylamine] in this work.
A Ki of 0.091 µM was found for `CC(Oc1cc(-c2ccc(C(=O)N3C[C@@H](C)N[C@@H](C)C3)c(F)c2)cnc1N)c1c(Cl)ccc(F)c1Cl` (stereo partly drawn) [Example I-551, (4-{6-Amino-5-[1-(2,6-dichloro-3-fluoro-phenyl)-ethoxy]-pyridin-3-yl}-2-fluoro-phenyl)-(dimethyl-piperazin-1-yl)-methanone] in this work.
A Ki of 0.224 µM was found for `CC(Oc1cc(-c2ccc(C(=O)N3C[C@@H](C)N[C@@H](C)C3)cc2F)cnc1N)c1c(Cl)ccc(F)c1Cl` (stereo partly drawn) [Example I-552, (4-{6-Amino-5-[1-(2,6-dichloro-3-fluoro-phenyl)-ethoxy]-pyridin-3-yl}-3-fluoro-phenyl)-(dimethyl-piperazin-1-yl)-methanone] in this work.
A Ki of 0.259 µM was found for `Cc1cc(C(=O)N2C[C@@H](C)N[C@@H](C)C2)ccc1-c1cnc(N)c(OC(C)c2c(Cl)ccc(F)c2Cl)c1` (stereo partly drawn) [Example I-553, (4-{6-Amino-5-[1-(2,6-dichloro-3-fluoro-phenyl)-ethoxy]-pyridin-3-yl)-3-methyl-phenyl)-(dimethyl-piperazin-1-yl)-methanone] in this work.
A Ki of 0.141 µM was found for `CC(Oc1cc(-c2ccc(C(=O)N3C[C@@H](C)O[C@@H](C)C3)cc2)cnc1N)c1c(Cl)ccc(F)c1Cl` (stereo partly drawn) [Example I-554, (4-{6-Amino-5-[1-(2,6-dichloro-3-fluoro-phenyl)-ethoxy]-pyridin-3-yl}-phenyl)-((2R,6S)-2,6-dimethyl-morpholin-4-yl)-methanone] in this work.
A Ki of 0.575 µM was found for `COc1ccc(OC)c(-c2cnc(N)c(OC(C)c3c(Cl)ccc(F)c3Cl)c2)c1` (stereo not drawn) [Example I-556, 3-[1-(2,6-Dichloro-3-fluoro-phenyl)-ethoxy]-5-(2,5-dimethoxy-phenyl)-pyridin-2-ylamine] in this work.
A Ki of 0.217 µM was found for `COc1ccc(-c2cnc(N)c(OC(C)c3c(Cl)ccc(F)c3Cl)c2)c(OC)c1` (stereo not drawn) [Example I-557, 3-[1-(2,6-Dichloro-3-fluoro-phenyl)-ethoxy]-5-(2,4-dimethoxy-phenyl)-pyridin-2-ylamine] in this work.
A Ki of 0.278 µM was found for `COc1ccccc1-c1cnc(N)c(OC(C)c2c(Cl)ccc(F)c2Cl)c1` (stereo not drawn) [Example I-566, 3-[1-(2,6-Dichloro-3-fluoro-phenyl)-ethoxy]-5-(2-methoxy-phenyl)-pyridin-2-ylamine] in this work.
A Ki of 0.0525 µM was found for `CC(Oc1cc(-c2ccc(C(=O)N3CCOCC3)cc2)cnc1N)c1c(Cl)ccc(F)c1Cl` (stereo not drawn) [Example I-568, (4-{6-Amino-5-[1-(2,6-dichloro-3-fluoro-phenyl)-ethoxy]-pyridin-3-yl}-phenyl)-morpholin-4-yl-methanone] in this work.
A Ki of 0.0478 µM was found for `CC(Oc1cc(-c2ccc(C(=O)N3C[C@@H](C)N[C@@H](C)C3)c(Cl)c2)cnc1N)c1c(Cl)ccc(F)c1Cl` (stereo partly drawn) [Example I-569, (4-{6-Amino-5-[1-(2,6-dichloro-3-fluoro-phenyl)-ethoxy]-pyridin-3-yl}-2-chloro-phenyl)-((3R,5S)-dimethyl-piperazin-1-yl)-methanone] in this work.
A Ki of 0.225 µM was found for `Cc1cc(-c2cnc(N)c(OC(C)c3c(Cl)ccc(F)c3Cl)c2)ccc1C(=O)N1C[C@@H](C)N[C@@H](C)C1` (stereo partly drawn) [Example I-570] in this work.
A Ki of 0.22 µM was found for `CC(Oc1cc(-c2ccc(CN3C[C@@H](C)O[C@@H](C)C3)cc2)cnc1N)c1c(Cl)ccc(F)c1Cl` (stereo partly drawn) [Example I-571, 3-[1-(2,6-Dichloro-3-fluoro-phenyl)-ethoxy]-5-[4-((2R,6S)-2,6-dimethyl-morpholin-4-ylmethyl)-phenyl]-pyridin-2-ylamine] in this work.
A Ki of 0.0554 µM was found for `CC(Oc1cc(-c2ccc(CN3CCOCC3)cc2)cnc1N)c1c(Cl)ccc(F)c1Cl` (stereo not drawn) [Example I-572, 3-[1-(2,6-Dichloro-3-fluoro-phenyl)-ethoxy]-5-(4-morpholin-4-ylmethyl-phenyl)-pyridin-2-ylamine] in this work.
A Ki of 0.0095 µM was found for `CC(Oc1cc(-c2ccc(C(=O)N3CCCN(C)CC3)cc2)cnc1N)c1c(Cl)ccc(F)c1Cl` (stereo not drawn) [Example I-603, (4-{6-Amino-5-[1-(2,6-dichloro-3-fluoro-phenyl)-ethoxy]-pyridin-3-yl}-phenyl)-(4-methyl-[1,4]-diazepan-1-yl)-methanone] in this work.
A Ki of 0.031 µM was found for `CC(Oc1cc(-c2ccc(C(=O)N3CCCNCC3)cc2)cnc1N)c1c(Cl)ccc(F)c1Cl` (stereo not drawn) [Example I-604, (4-{6-Amino-5-[1-(2,6-dichloro-3-fluoro-phenyl)-ethoxy]-pyridin-3-yl}-phenyl)-[1,4]diazepan-1-yl-methanone] in this work.

Same assay, conditions: cells prefixed Ki; read-out: Met Ki
A Ki of 0.2 µM was found for `COC(=O)COc1ccc(-c2cnc(N)c(OC(C)c3c(Cl)ccc(F)c3Cl)c2)cc1` (stereo not drawn) [Example I-475, (4-{6-Amino-5-[1-(2,6-dichloro-3-fluoro-phenyl)-ethoxy]-pyridin-3-yl}-phenoxy)-acetic acid methyl ester] in this work.
A Ki of 0.2 µM was found for `CC(Oc1cc(-c2ccc(OCC(=O)O)cc2)cnc1N)c1c(Cl)ccc(F)c1Cl` (stereo not drawn) [Example I-476, (4-{6-Amino-5-[1-(2,6-dichloro-3-fluoro-phenyl)-ethoxy]-pyridin-3-yl}-phenoxy)-acetic acid] in this work.
A Ki of 0.027 µM was found for `CC(Oc1cc(-c2ccc(OCC(=O)N3C[C@@H](C)N[C@@H](C)C3)cc2)cnc1N)c1c(Cl)ccc(F)c1Cl` (stereo partly drawn) [Example I-477, 2-(4-{6-Amino-5-[1-(2,6-dichloro-3-fluoro-phenyl)-ethoxy]-pyridin-3-yl}-phenoxy)-1-((3R,5S)-3,5-dimethyl-piperazin-1-yl)-ethanone] in this work.
A Ki of 0.041 µM was found for `CC(Oc1cc(-c2ccc(OCC(=O)N3CC[C@@H](O)C3)cc2)cnc1N)c1c(Cl)ccc(F)c1Cl` (stereo partly drawn) [Example I-478, 2-(4-{6-Amino-5-[1-(2,6-dichloro-3-fluoro-phenyl)-ethoxy]-pyridin-3-yl}-phenoxy)-1-((R)-3-hydroxy-pyrrolidin-1-yl)-ethanone] in this work.
A Ki of 0.16 µM was found for `CC(Oc1cc(-c2ccc(OCC(=O)N3CCN(C(=O)OC(C)(C)C)CC3)cc2)cnc1N)c1c(Cl)ccc(F)c1Cl` (stereo not drawn) [Example I-479, 4-[2-(4-{6-Amino-5-[1-(2,6-dichloro-3-fluoro-phenyl)-ethoxy]-pyridin-3-yl}-phenoxy)-acetyl]-piperazine-1-carboxylic acid tert-butyl ester] in this work.
A Ki of 3.3 µM was found for `CC(Oc1cc(-c2ccc(OCCN3CCCC3)cc2)cnc1N)c1cccc(F)c1Cl` (stereo not drawn) [Example I-487, 3-[1-(2-Chloro-3-fluoro-phenyl)-ethoxy]-5-[4-(2-pyrrolidin-1-yl-ethoxy)-phenyl]-pyridin-2-ylamine] in this work.
